Laboratory results as given in US20230135093A1, “TRIAZOLYL DERIVATIVES AS GABA A ALPHA5 PAM” (Hoffmann-La Roche Inc., priority 2020, published 2023).

Experiments:
h-GABA-A α5β3γ2 [1] = molecular target: T1, h-GABA-A α5β3γ2 (Homo sapiens, UniProt P18507+P31644); test: [3H]flumazenil competition binding assay on membranes of HEK293 cells expressing GABAA receptors; conditions: Table 1; displacement of [3H]-Flumazenil (0.5 nM), HEK293 cells expressing human receptors, means of two determinations
T1 construct: expressed in transfected cells; host or cells: Xenopus laevis oocytes, micro-injected with subunit RNA
Method: The affinity of compounds at GABAA receptor subtypes was measured by competition for [3H]flumazenil (85 Ci/mmol; Roche) binding to HEK293 cells expressing rat (stably transfected) or human (transiently transfected) receptors of composition α1β3γ2, α2β3γ2, α3β3γ2 and α5β3γ2.
Cell pellets were suspended in Krebs-tris buffer (4.8 mM KCl, 1.2 mM CaCl2, 1.2 mM MgCl2, 120 mM NaCl, 15 mM Tris; pH 7.5; binding assay buffer), homogenized by polytron for ca. 20 sec on ice and centrifuged for 60 min at 4° C. (50000 g; Sorvall, rotor: SM24=20000 rpm). The cell pellets were resuspended in Krebs-tris buffer and homogenized by polytron for ca. 15 sec on ice. Protein was measured (Bradford method, Bio-Rad) and aliquots of 1 mL were prepared and stored at −80° C.
Radioligand binding assays were carried out in a volume of […] (96-well plates) which contained […] of cell membranes, [^3H]-Flumazenil at a concentration of 1 nM for α1, α2, α3 subunits and 0.5 nM for α5 subunits and the test compound in the range of […]. Nonspecific binding was defined by 10^−5 M diazepam and typically represented less than 5% of the total binding. Assays were incubated to equilibrium for 1 hour at 4° C. and harvested onto GF/C uni-filters (Packard) by filtration using a Packard harvester and washing with ice-cold wash buffer (50 mM Tris; pH 7.5). After drying, filter-retained radioactivity was detected by liquid scintillation counting. Ki values were calculated using Excel-Fit (Microsoft) and are the means of two determinations.
In a preferred embodiment the compounds of the invention are binding selective for the α5 subunit relative to the α1, α2 and α3 subunit. Representative test results, obtained by the above described assay measuring binding affinity to HEK293 cells expressing human (h) receptors, are shown in the Table below.

h-GABA-A α5β3γ2 [2] = molecular target: T1, h-GABA-A α5β3γ2; test: Two-electrode voltage clamp electrophysiology in Xenopus oocytes expressing GABAA receptors (modulation of GABA EC20 current); assay type: cell-based; conditions: for Efficacy (GABA) % / Fold increase h-GABA-A α5β3γ2 oocyte: Table 1; for Efficacy (GABA) %: % modulation of GABA EC20 = 100*(Fold increase-1); for Fold increase h-GABA-A α5β3γ2 oocyte: Xenopus oocytes, GABA EC20, test compound at approximatively 30 fold its Ki; for Fold increase: positive controls
Method: Xenopus laevis oocytes at maturation stages V-VI were used for the expression of cloned mRNA encoding GABAA receptor subunits. Oocytes ready for RNA micro-injection were bought from Ecocyte, Castrop-Rauxel, Germany and stored in modified Barth's medium (composition in mM: NaCl 88, KCl 1, NaHCO3 2.4, HEPES 10, MgSO4 0.82, CaNO3 0.33, CaCl2 0.33, pH=7.5) at 20° C. until the experiment.
Oocytes were plated in 96-well plates to be used in an automated instrument (Robo-ocyte, MultiChannelSystems, Reutlingen, Germany) for microinjection and electrophysiological recordings. Approximately 50 nl of an aqueous solution containing the RNA transcripts for the subunits of the desired GABAA receptor was injected into each oocyte. RNA concentrations ranged between 0.3 and 16 ng/μl/subunit and were adjusted in pilot experiments to obtain GABA responses of a suitable size and a maximal effect of the reference modulator, Beta-CCM (3-CCM), a betacarboline negative allosteric modulator (NAM) at the GABAA receptor benzodiazepine (BZD) binding site or Midazolam, a benzodiazepine positive allosteric modulator (PAM) at the GABAA receptor benzodiazepine (BZD) binding site. The concentration of the γ2 subunit encoding RNA usually was 5- to 10-fold higher than the RNAs encoding the other subunits. Oocytes were kept in modified Barth's medium (composition in mM: NaCl 88, KCl 1, NaHCO3 4, HEPES 10, MgSO4 0.82, CaNO3 0.33, CaCl2 0.33, pH=7.5) at 20° C. until the experiment.
Electrophysiological experiments were performed on days 3 to 5 after the micro-injection of mRNA. During the experiment the oocytes were constantly superfused by a solution containing (in mM) NaCl 90, KCl 1, HEPES 5, MgCl2 1, CaCl2 1 (pH 7.4). Oocytes were impaled by two glass microelectrodes (resistance: 0.4 MQ) which were filled with a solution containing KCl 1M+K-acetate 1.5 M and voltage-clamped to −80 mV. The recordings were performed at room temperature using the Roboocyte two-electrode voltage clamp system (Multichannelsystem). After an initial equilibration period of 1.5 min GABA was added for 1.5 min at a concentration evoking approximately 20% of a maximal current response (EC20). After another rest interval of 2.5 min GABA was again added evoking a response of similar amplitude and shape. 0.5 min after the onset of this second GABA application the test compound, at a concentration corresponding to approximatively 30 fold its Ki, was added while GABA was still present. Current traces were recorded at a digitization rate of 10 Hz during and shortly before and after the GABA application.
Each compound and concentration was tested on at least 3 oocytes. Different oocytes were used for different compound concentrations. β-CCM, a negative allosteric modulator, or Midazolam, a positive allosteric modulators, were tested on a few (3-6) oocytes on each 96-well plate for a positive control at a maximally effective. β-CCM inhibited the GABA-evoked current by approximatively 50% (Fold increase 0.5), while Midazolam potentiated the GABA-induced current by approximatively 150% (Fold increase 2.5).
For the analysis, the digitized current traces of the first and second GABA response were superimposed and, if necessary, rescaled to equal maximal amplitudes. The ratio between the two responses during the time interval of test compound application was calculated point by point. The extremum of the resulting “ratio trace” was taken as the efficacy (“Fold increase”) of the compound expressed as “% modulation of GABA EC20” (100*(Fold increase-1)).

[3] = positive control, maximally effective concentration, 3-6 oocytes per 96-well plate
[4] = maximally effective concentration

SMILES	Ki (h-GABA-A α5β3γ2 [1]) [µM]	Efficacy (GABA) % (h-GABA-A α5β3γ2 [2]) [%]	Fold increase h-GABA-A α5β3γ2 oocyte (h-GABA-A α5β3γ2 [2])	potentiated the GABA-induced current (h-GABA-A α5β3γ2 [2]; [3]) [%]	Fold increase (h-GABA-A α5β3γ2 [2]; [4])	inhibited the GABA-evoked current (h-GABA-A α5β3γ2 [2]; [3]) [%]
Cc1ccc(-c2nnn(C)c2Cn2ncc(N3CCCC3)cc2=O)cn1 [Example 8, 2-((3-methyl-5-(6-methyl-3-pyridyl)triazol-4-yl)methyl)-5-pyrrolidin-1-yl-pyridazin-3-one]	0.0209	130	2.3	–	–	–
Cc1ccc(-c2nnn(C)c2Cn2ncc(N3CCOCC3)cc2=O)cn1 [Example 9, 2-[[3-methyl-5-(6-methyl-3-pyridyl)triazol-4-yl]methyl]-5-morpholino-pyridazin-3-one]	0.0168	135	2.35	–	–	–
Cc1ccc(-c2nnn(C)c2Cn2ncc(N3CCC(C)(C)C3)cc2=O)cn1 [Example 10, 5-(3,3-dimethylpyrrolidin-1-yl)-2-[[3-methyl-5-(6-methyl-3-pyridyl)triazol-4-yl]methyl]pyridazin-3-one]	0.0044	201	3.01	–	–	–
Cc1ccc(-c2nnn(C)c2Cn2ncc(N3CCOC(C)(C)C3)cc2=O)cn1 [Example 11, 5-(2,2-dimethylmorpholin-4-yl)-2-[[3-methyl-5-(6-methyl-3-pyridyl)triazol-4-yl]methyl]pyridazin-3-one]	0.0012	48	1.48	–	–	–
Cc1nnn(-c2ccc(Cl)cc2)c1Cn1ncc(N(C)C)cc1=O [Example 13, 2-[[3-(4-chlorophenyl)-5-methyl-triazol-4-yl]methyl]-5-(dimethylamino)pyridazin-3-one]	0.0319	31	1.31	–	–	–
Cc1nnn(-c2ccc(Cl)cc2)c1Cn1ncc(N2CCNCC2)cc1=O [Example 14, 2-[[3-(4-chlorophenyl)-5-methyl-triazol-4-yl]methyl]-5-piperazin-1-yl-pyridazin-3-one]	0.0396	72	1.72	–	–	–
CN(C)c1cnn(Cc2c(-c3ccc(Cl)cc3F)nnn2C)c(=O)c1 [Example 15, 2-[[5-(4-chloro-2-fluoro-phenyl)-3-methyl-triazol-4-yl]methyl]-5-(dimethylamino)pyridazin-3-one]	0.0038	48	1.48	–	–	–
Cn1nnc(-c2ccc(Cl)cc2F)c1Cn1ncc(N2CCOCC2)cc1=O [Example 16, 2-[[5-(4-chloro-2-fluoro-phenyl)-3-methyl-triazol-4-yl]methyl]-5-morpholino-pyridazin-3-one]	0.0022	81	1.81	–	–	–
Cc1ncc2n1-c1ccc(Cl)cc1C(c1ccccc1F)=NC2 [Midazolam, reference compound]	–	–	–	~150	~2.5	–
COC(=O)c1cc2c(cn1)[nH]c1ccccc12 [β-CCM, reference compound]	–	–	–	–	~0.5	~50
